Reference: US4206217A, “3-[4-(1,3-Diazacycloalken-2-yl)-phenyl]-1,2-benzisothiazoles, their manufacture, and drugs containing these compounds” (BASF Aktiengesellschaft, priority 1977, dated 1980)
Where a name gives a salt, the structure may show the parent alone.

Assays:
[1] = system: isolated auricle; experiment: Stimulation time/tension relationship (isolated auricle)
From the text: In test models used in respect of the antiarrhythmic effect, the following findings were obtained: Stimulation time/tension relationship (isolated auricle): […]

[2] = system: female Swiss mice; experiment: in vivo; details: versus procainamide
Description: (§1) The acute toxicity was determined on groups of 10 or 20 female Swiss mice weighing 20-26 g, using intraperitoneal administration. The LD 50 was calculated (Probit analysis) as the dose following which 50% of the animals died within 7 days.

[3] = in vivo; details: mouse, in vivo; for LD50 at 168 h: ip
Description: as §1

[4] = system: ventricular fibrillation threshold; experiment: Ventricular fibrillation threshold in guinea pigs; type: in vivo, guinea pig; details: intravenous administration
From the text: Ventricular fibrillation threshold in guinea pigs:

[5] = system: aconitine-induced arrhythmia; experiment: animal or person; type: in vivo, rat (Sprague Dawley); details: for ED50: Rattus norvegicus, po, read-out: Antiarrhythmic effect: effective dose ED 50%; for Maximum effect: Δ% (increase in duration of aconitine infusion): effect of the maximum nontoxic dose (215 for Examples 2 and 3; 681 for procainamide); for Maximum effect: Δ% (increase in duration of aconitine infusion) / Antiarrhythmic effect: R.E. (relative effect) / Maximum effect: R.M.E. (relative maximum effectiveness) / Effect at the maximum dose, higher than that of procainamide / Antiarrhythmic activity greater than that of procainamide: rat, oral; for Antiarrhythmic effect: R.E. (relative effect) / Maximum effect: R.M.E. (relative maximum effectiveness): procainamide = 1.00; for Antiarrhythmic effect: R.E. (relative effect): effective dose; for Effect at the maximum dose, higher than that of procainamide / Antiarrhythmic activity greater than that of procainamide: versus procainamide
Description: The antiarrhythmic activity of the compounds was determined by orally administering these to rats (Sprague Dawley, weight: 180-240 g) 45 minutes before the start of narcosis (100 mg/kg of thiobutabarbital, administered intraperitoneally).
The arrhythmogenous substance used was aconitine, administered by intravenous infusion (at the rate of 0.005 mg/kg.minute) 60 minutes after administration of the compound of the invention.
For a quantitative evaluation of the linear relation between the logarithm of the dose (mg/kg) of the test substances and the relative increase in the duration of infusion of aconitine (Δ%), the dose which increases the duration of infusion by 50% (ED 50%) was determined.

Compound	Stimulation time/tension relationship, effect relative to quinidine [1]	Therapeutic range (LD 50 / ED 50%) greater than for procainamide [2] [times]	selectivity ratio [3]	LD50 at 168 h [3] [mg/kg]	Ventricular fibrillation threshold, effect relative to quinidine [4]	ED50 [5] [mg/kg]	Maximum effect: Δ% (increase in duration of aconitine infusion) [5] [%]	Antiarrhythmic effect: R.E. (relative effect) [5]	Maximum effect: R.M.E. (relative maximum effectiveness) [5]	Effect at the maximum dose, higher than that of procainamide [5] [%]	Antiarrhythmic activity greater than that of procainamide [5]
c1ccc2c(-c3ccc(C4=NCCCN4)cc3)nsc2c1 [Example 2, 3-[4-(Tetrahydropyrimidin-2-yl)-phenyl]-1,2-benzisothiazole hydrochloride]	1.24 times the effect of quinidine	4	4.03	126	1.8 times the effect of quinidine	31.2	289	5.03	2.14	114	about 5 times
CC1CN=C(c2ccc(-c3nsc4ccccc34)cc2)N1 (stereo not drawn) [Example 3, 3-[4-(Methylimidazolin-2-yl)-phenyl]-1,2-benzisothiazole hydrochloride]	1.5 times the effect of quinidine	2.8	2.76	90.5		32.7	233	4.80	1.73	73	about 5 times
CCN(CC)CCNC(=O)c1ccc(N)cc1 [Procainamide, procainamide, reference compound]				227		157	135				
